Reference: patent US6540976B1, “Method for reducing radiation toxicity” (The Board of Trustees of the University of Arkansas, priority 1997, dated 2003)

Assays:
[1] = system: radiation enteropathy (irradiated small bowel); assay: Rat small bowel radiation enteropathy model, single dose irradiation; type: in vivo, rats
Procedure: A 4-cm segment of distal ileum was sutured to the inside of the scrotum in orchiectomized male rats, thus forming an artificial “scrotal hernia”. The afferent bowel was divided 10 cm proximal to the “hernia”, an end ileostomy was prepared, and intestinal continuity was restored by end-to-side anastomosis. The intestine in the “hernia” was subsequently exposed to 0, 18, or 21 Gy single dose, or 8 daily fractions of 5.6 Gy (total dose 44.8 Gy), external beam X-irradiation. […] Mucosal injury was monitored non-invasively by assessment of granulocyte marker protein (GMP) excretion. Irradiated and shielded intestine were procured 2 weeks after irradiation and assessed for structural changes by histopathologic scoring, and for TGF-β, IL-1α, and ED-2 macrophage antigen immunoreactivity. Radiation injury scores are Ad the sum of 7 different histopathologic parameters graded according to severity. Intestinal wall thickness was measured with light microscopy and a stage micrometer. Intestinal wall TGF-β immunoreactivity levels were measured with computerized image analysis, and the number of ED-2 positive cells (macrophages) were counted with a light microscope and fields were determined according to a predetermined grid pattern.

[2] = system: radiation enteropathy (irradiated small bowel); assay: Rat small bowel radiation enteropathy model, fractionated radiation; type: in vivo, rats; settings: 8 x 5.6 Gy, 30 mg/kg q.d. for 14 days
Procedure: A 4-cm segment of distal ileum was sutured to the inside of the scrotum in orchiectomized male rats, thus forming an artificial “scrotal hernia”. The afferent bowel was divided 10 cm proximal to the “hernia”, an end ileostomy was prepared, and intestinal continuity was restored by end-to-side anastomosis. The intestine in the “hernia” was subsequently exposed to 0, 18, or 21 Gy single dose, or 8 daily fractions of 5.6 Gy (total dose 44.8 Gy), external beam X-irradiation. Orazipone or vehicle was injected through the stoma from 3 days prior to 2 weeks after irradiation. Mucosal injury was monitored non-invasively by assessment of granulocyte marker protein (GMP) excretion. Irradiated and shielded intestine were procured 2 weeks after irradiation and assessed for structural changes by histopathologic scoring, and for TGF-β, IL-1α, and ED-2 macrophage antigen immunoreactivity. Radiation injury scores are Ad the sum of 7 different histopathologic parameters graded according to severity. Intestinal wall thickness was measured with light microscopy and a stage micrometer. Intestinal wall TGF-β immunoreactivity levels were measured with computerized image analysis, and the number of ED-2 positive cells (macrophages) were counted with a light microscope and fields were determined according to a predetermined grid pattern.
To evaluate the effects of Orazipone following fractionated radiation, the transposed loop of small bowel was exposed to sham-irradiation or 8 daily fractions of 5.6 Gy (total dose 44.8 Gy). Orazipone (30 mg/kg q.d.) or vehicle was delivered for 14 days in 2 separate experimental groups. Group 1 received the drug during and after irradiation (radiation day 2 through post-radiation day 7), while Group 2 received the drug only after irradiation (post-radiation days 0 through 13). All animals were euthanized on post-radiation day 14.

[3] = system: mononuclear cells; settings: cited from earlier work
[4] = system: neutrophils; settings: cited from earlier work
[5] = system: T-cell; settings: cited from earlier work
[6] = in vivo; cited from earlier work
[7] = single dose irradiation, vs vehicle-treated controls, p<0.01
[8] = given either during or after irradiation

SMILES: CC(=O)C(=Cc1ccc(S(C)(=O)=O)cc1)C(C)=O [Orazipone]
- TGF-β overexpression ([1]; 30 mg/kg daily for 1 week after a single dose of 21 Gy): significantly attenuated
- frequency of subacute severe small bowel radiation toxicity ([1]; 30 mg/kg daily for 1 week after a single dose of 21 Gy, reduced from 80% (control)): 25%
- GMP excretion ([1]; single dose irradiation): not significantly affected
- macrophage accumulation ([1]; single dose irradiation): not significantly affected
- extracellular matrix-associated TGF-β immunoreactivity [1, 7]: less
- histopathologic injury of irradiated intestine [1, 7]: less
- intestinal wall thickening ([1]; single dose irradiation, vs vehicle-treated controls, p<0.05): less
- IL-1α positive cells ([1]; single dose irradiation, vs vehicle-treated controls, p=0.05): less
- subacute radiation enteropathy as assessed by Radiation Injury Score [2, 8]: significantly ameliorated
- subacute radiation enteropathy as assessed by extracellular matrix-associated TGF-β immunoreactivity [2, 8]: significantly ameliorated
- subacute radiation enteropathy as assessed by intestinal wall thickness [2, 8]: significantly ameliorated
- extent of mucosal injury (mucosal surface area measurements) ([2]; among the treatment groups): did not differ
- release of IL-1α, IL-1β and TNFα from mononuclear cells [3]: inhibits
- NADPH oxidase and LTB4 production by neutrophils [4]: suppresses
- T-cell proliferation and IL-2 release [5]: reduces
- fate of absorbed drug (metabolism) [6]: broken down into inactive metabolites very quickly
